Measurements as given in PubChem BioAssay (NCI).
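GI50 marks 50% less growth. TGI denotes the concentration required for complete inhibition of growth.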

Experiments:
Assay in all cases: NCI-60 cell line screen, 384-well format
SK-MEL-28 melanoma = system: SK-MEL-28 melanoma
HCC-2998 colon = system: HCC-2998 colon
RPMI-8226 leukemia = system: RPMI-8226 leukemia
HCT-116 colon = system: HCT-116 colon
HT29 colon = system: HT29 colon
SW-620 colon = system: SW-620 colon
CCRF-CEM leukemia = system: CCRF-CEM leukemia
NCI-H322M lung = system: NCI-H322M lung
BT-549 breast = system: BT-549 breast
UACC-62 melanoma = system: UACC-62 melanoma
KM12 colon = system: KM12 colon
OVCAR-3 ovarian = system: OVCAR-3 ovarian
MDA-MB-231 breast = system: MDA-MB-231 breast
ACHN renal = system: ACHN renal
NCI/ADR-RES ovarian = system: NCI/ADR-RES ovarian
T-47D breast = system: T-47D breast
MDA-MB-435 melanoma = system: MDA-MB-435 melanoma
PC-3 prostate = system: PC-3 prostate
NCI-H460 NSCLC = system: NCI-H460 NSCLC
DU-145 prostate = system: DU-145 prostate
IGROV1 ovarian = system: IGROV1 ovarian
MOLT-4 leukemia = system: MOLT-4 leukemia
SF-539 CNS = system: SF-539 CNS
A498 renal = system: A498 renal
SN12C renal = system: SN12C renal
OVCAR-4 ovarian = system: OVCAR-4 ovarian
EKVX NSCLC = system: EKVX NSCLC
UACC-257 melanoma = system: UACC-257 melanoma
CAKI-1 renal = system: CAKI-1 renal
LOX IMVI melanoma = system: LOX IMVI melanoma
MDA-MB-468 breast = system: MDA-MB-468 breast
SK-MEL-5 melanoma = system: SK-MEL-5 melanoma
HCT-15 colon = system: HCT-15 colon
HOP-92 NSCLC = system: HOP-92 NSCLC
NCI-H522 lung = system: NCI-H522 lung
SNB-75 CNS = system: SNB-75 CNS
HOP-62 NSCLC = system: HOP-62 NSCLC
RXF 393 renal = system: RXF 393 renal
SNB-19 CNS = system: SNB-19 CNS
MALME-3M melanoma = system: MALME-3M melanoma
M14 melanoma = system: M14 melanoma
U251 glioblastoma = system: U251 glioblastoma
UO-31 renal = system: UO-31 renal
A549 NSCLC = system: A549 NSCLC
NCI-H23 lung = system: NCI-H23 lung
SK-OV-3 ovarian = system: SK-OV-3 ovarian
NCI-H226 lung = system: NCI-H226 lung
SR leukemia = system: SR leukemia
TK-10 renal = system: TK-10 renal
OVCAR-8 ovarian = system: OVCAR-8 ovarian
MCF7 breast = system: MCF7 breast
SF-268 CNS = system: SF-268 CNS
SF-295 CNS = system: SF-295 CNS
K-562 leukemia = system: K-562 leukemia
786-0 renal = system: 786-0 renal
HL-60(TB) leukemia = system: HL-60(TB) leukemia
HS 578T breast = system: HS 578T breast
COLO 205 colon = system: COLO 205 colon

With `Cc1ccccc1C(C(=O)NC1CCCCC1)N(C(=O)Cn1ccnc1C)c1cccc(F)c1` (stereo unspecified) the GI50 (SK-MEL-28 melanoma) was > 100 µM, the TGI (SK-MEL-28 melanoma) was > 100 µM and the GI50 (HCC-2998 colon) was > 100 µM. The TGI (HCC-2998 colon) was > 100 µM, the GI50 (RPMI-8226 leukemia) was > 100 µM and the TGI (RPMI-8226 leukemia) was > 100 µM. For the same molecule, the GI50 (HCT-116 colon) was > 100 µM, the TGI (HCT-116 colon) was > 100 µM and the GI50 (HT29 colon) was > 100 µM. For the same molecule, the TGI (HT29 colon) was > 100 µM, the GI50 (SW-620 colon) was > 100 µM and the TGI (SW-620 colon) was > 100 µM. For the same molecule, the GI50 (CCRF-CEM leukemia) was > 100 µM, the TGI (CCRF-CEM leukemia) was > 100 µM and the GI50 (NCI-H322M lung) was > 100 µM. For the same molecule, the TGI (NCI-H322M lung) was > 100 µM, the GI50 (BT-549 breast) was > 100 µM and the TGI (BT-549 breast) was > 100 µM. For the same molecule, the GI50 (UACC-62 melanoma) was > 100 µM, the TGI (UACC-62 melanoma) was > 100 µM and the GI50 (KM12 colon) was > 100 µM. For the same molecule, the TGI (KM12 colon) was > 100 µM, the GI50 (OVCAR-3 ovarian) was > 100 µM and the TGI (OVCAR-3 ovarian) was > 100 µM. For the same molecule, the GI50 (MDA-MB-231 breast) was 51.1 µM, the TGI (MDA-MB-231 breast) was > 100 µM and the GI50 (ACHN renal) was > 100 µM. The TGI (ACHN renal) was > 100 µM, the GI50 (NCI/ADR-RES ovarian) was > 100 µM and the TGI (NCI/ADR-RES ovarian) was > 100 µM. For the same molecule, the GI50 (T-47D breast) was 24.5 µM, the TGI (T-47D breast) was > 100 µM and the GI50 (MDA-MB-435 melanoma) was > 100 µM. The TGI (MDA-MB-435 melanoma) was > 100 µM, the GI50 (PC-3 prostate) was > 100 µM and the TGI (PC-3 prostate) was > 100 µM. For the same molecule, the GI50 (NCI-H460 NSCLC) was > 100 µM, the TGI (NCI-H460 NSCLC) was > 100 µM and the GI50 (DU-145 prostate) was > 100 µM. For the same molecule, the TGI (DU-145 prostate) was > 100 µM, the GI50 (IGROV1 ovarian) was > 100 µM and the TGI (IGROV1 ovarian) was > 100 µM. For the same molecule, the GI50 (MOLT-4 leukemia) was > 100 µM, the TGI (MOLT-4 leukemia) was > 100 µM and the GI50 (SF-539 CNS) was 36.2 µM. The TGI (SF-539 CNS) was > 100 µM, the GI50 (A498 renal) was 66.6 µM and the TGI (A498 renal) was > 100 µM. For the same molecule, the GI50 (SN12C renal) was > 100 µM, the TGI (SN12C renal) was > 100 µM and the GI50 (OVCAR-4 ovarian) was > 100 µM. The TGI (OVCAR-4 ovarian) was > 100 µM, the GI50 (EKVX NSCLC) was > 100 µM and the TGI (EKVX NSCLC) was > 100 µM. For the same molecule, the GI50 (UACC-257 melanoma) was > 100 µM, the TGI (UACC-257 melanoma) was > 100 µM and the GI50 (CAKI-1 renal) was > 100 µM. The TGI (CAKI-1 renal) was > 100 µM, the GI50 (LOX IMVI melanoma) was 52.7 µM and the TGI (LOX IMVI melanoma) was > 100 µM. For the same molecule, the GI50 (MDA-MB-468 breast) was > 100 µM, the TGI (MDA-MB-468 breast) was > 100 µM and the GI50 (SK-MEL-5 melanoma) was > 100 µM. The TGI (SK-MEL-5 melanoma) was > 100 µM, the GI50 (HCT-15 colon) was > 100 µM and the TGI (HCT-15 colon) was > 100 µM. The GI50 (HOP-92 NSCLC) was 77.4 µM, the TGI (HOP-92 NSCLC) was > 100 µM and the GI50 (NCI-H522 lung) was > 100 µM. For the same molecule, the TGI (NCI-H522 lung) was > 100 µM, the GI50 (SNB-75 CNS) was 26.8 µM and the TGI (SNB-75 CNS) was > 100 µM. For the same molecule, the GI50 (HOP-62 NSCLC) was > 100 µM, the TGI (HOP-62 NSCLC) was > 100 µM and the GI50 (RXF 393 renal) was 20.5 µM. The TGI (RXF 393 renal) was 96.6 µM, the GI50 (SNB-19 CNS) was > 100 µM and the TGI (SNB-19 CNS) was > 100 µM. For the same molecule, the GI50 (MALME-3M melanoma) was > 100 µM, the TGI (MALME-3M melanoma) was > 100 µM and the GI50 (M14 melanoma) was > 100 µM. For the same molecule, the TGI (M14 melanoma) was > 100 µM, the GI50 (U251 glioblastoma) was > 100 µM and the TGI (U251 glioblastoma) was > 100 µM. For the same molecule, the GI50 (UO-31 renal) was > 100 µM, the TGI (UO-31 renal) was > 100 µM and the GI50 (A549 NSCLC) was > 100 µM. For the same molecule, the TGI (A549 NSCLC) was > 100 µM, the GI50 (NCI-H23 lung) was > 100 µM and the TGI (NCI-H23 lung) was > 100 µM. For the same molecule, the GI50 (SK-OV-3 ovarian) was > 100 µM, the TGI (SK-OV-3 ovarian) was > 100 µM and the GI50 (NCI-H226 lung) was > 100 µM. The TGI (NCI-H226 lung) was > 100 µM, the GI50 (SR leukemia) was 20 µM and the TGI (SR leukemia) was 86.6 µM. For the same molecule, the GI50 (TK-10 renal) was 49.2 µM, the TGI (TK-10 renal) was > 100 µM and the GI50 (OVCAR-8 ovarian) was 75.6 µM. The TGI (OVCAR-8 ovarian) was > 100 µM, the GI50 (MCF7 breast) was > 100 µM and the TGI (MCF7 breast) was > 100 µM. The GI50 (SF-268 CNS) was > 100 µM, the TGI (SF-268 CNS) was > 100 µM and the GI50 (SF-295 CNS) was 30 µM. The TGI (SF-295 CNS) was > 100 µM, the GI50 (K-562 leukemia) was > 100 µM and the TGI (K-562 leukemia) was > 100 µM. For the same molecule, the GI50 ([…]-0 renal) was > 100 µM, the TGI (786-0 renal) was > 100 µM and the GI50 (HL-60(TB) leukemia) was > 100 µM. The TGI (HL-60(TB) leukemia) was > 100 µM, the GI50 (HS 578T breast) was 27.4 µM and the TGI (HS 578T breast) was 83 µM. For the same molecule, the GI50 (COLO 205 colon) was > 100 µM and the TGI (COLO 205 colon) was > 100 µM.
